Measured values published in PubChem BioAssay AID977621 (Broad Institute, 2014).
Inconclusive results are not listed. Active and inactive are the calls of the source.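 How the source made its calls: active means Wild-type ribosome reporter drop at least double the humanized mutant ribosome reporter drop, growth loss under a set limit; inconclusive means no clear call, values can overlap the other calls; inactive means the rest.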

Legend:
[1] = tested on: E. coli H69 humanized mutant ribosome RFP strain growth, fluorescence, 24 h; assay: growth inhibition of wild-type GFP E. coli, dose response, H69 mutant RFP, cherry-pick (AID 977621); details: test 2;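 further: wild-type GFP and H69 mutant RFP strains grown together 50/50 in each well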
[2] = tested on: E. coli wild-type GFP strain growth, fluorescence, 24 h; assay: as above
[3] = E. coli mixed culture, 24 h, measured here: total growth OD600, test 2

SMILES | AC50 [1] [µM] | AC50 [2] | AC50 [2, 3] [µM] | further results
Oc1ccc(-c2csc(Nc3ncccn3)n2)cc1 | > 100 |  |  | 
Cc1onc(-c2ccccc2Cl)c1C(=O)OCC(=O)c1ccccc1 | 45.6 |  |  | 
COc1ccc(CNC(=O)c2sc3nc4c(c(C(F)(F)F)c3c2N)CCC4)cc1OC | 13.9 |  |  | 
O=C(CSCc1cnn(-c2ccccc2)c1-n1cccc1)NCc1cccnc1 | 2.13 |  |  | 
CCCCn1c(=O)[nH]c(=O)c2c1nc(-c1ccccc1F)n2Cc1ccccc1 | > 100 |  |  | 
CN1CCN(CC(=O)c2cc(C(C)(C)C)c(O)c(C(C)(C)C)c2)CC1 | > 100 |  |  | 
CCOc1ccc(S(=O)(=O)N(C)c2ccc(OCC(=O)NCc3cccnc3)cc2)cc1 | > 100 |  |  | 
O=C(O)c1cc(-c2cccs2)nn1-c1cccc(Cl)c1 | 46.1 |  |  | 
CCN(CC)CC(=O)Nc1sc2c(c1C(=O)c1ccccc1OC)CCC2 | 48.3 |  |  | 
Cc1ccccc1CSc1nnc(-c2ccccn2)n1C | 28.3 |  |  | 
Fc1ccc(-c2nc3ccc(Cl)cn3c2Cc2cccc(Cl)c2)cc1 | > 100 |  |  | 
COc1ccc(C2CC(c3cccs3)=Nc3ccccc3S2)cc1 (stereo not given) | 1.44 |  |  | 
Cc1noc(NS(=O)(=O)c2ccc(NC(=O)c3cc(-c4ccccc4Cl)nc4ccccc34)cc2)c1C | 45.6 |  |  | 
CCc1cccc(NC(=O)c2ccc3c(=O)n4c(nc3c2)CCCCC4)c1 | > 100 |  |  | 
CSc1cccc(NC(=O)CCc2ccccc2)c1 | 20 |  |  | 
O=C(COC(=O)C1CC2C=CC1C2)Nc1ccc([N+](=O)[O-])cc1 (stereo not given) | > 100 |  |  | 
O=C(CSc1nc2ccccc2n1S(=O)(=O)c1cccc([N+](=O)[O-])c1)NCCc1ccccc1 | > 100 |  |  | 
O=C(c1ccc(-n2cccn2)cc1)N1CCc2ccccc2C1 | 52.2 |  |  | 
O=C(OCC1COc2ccccc2O1)c1ccccc1F (stereo not given) | > 100 |  |  | 
O=C(COC(=O)CCC(=O)c1ccc(F)cc1)NCCc1ccccc1 | > 100 |  |  | 
[O-][n+]1ccccc1/C=C/c1ccccc1 | > 100 |  |  | 
CCOC(=O)C1CCCN(Cc2c(Cl)cccc2Cl)C1 (stereo not given) | 6.66 |  |  | 
O=C1N2c3ccccc3CCc3cccc(c32)C1(O)C(F)(F)F (stereo not given) | 43.6 |  |  | 
COc1ccc(OC2C(=O)N(Cc3ccc4c(c3)OCO4)C2c2cccs2)cc1 (stereo not given) | 47.4 |  |  | 
COc1ccc(OC)c(N(CC(=O)Nc2ccccc2F)S(=O)(=O)c2ccccc2)c1 | 4.66 |  |  | 

SMILES | AC50 [1] [µM] | AC50 [2] | AC50 [2, 3] [µM] | further results
Cc1noc2ncnc(SCc3ccc(C(F)(F)F)cc3)c12 | > 100 |  |  | 
O=C(NCCc1csc(-c2ccccc2)n1)c1ccccc1F | 49 |  |  | 
CC(C)(C)N(Cc1ccccc1)C(=O)COC(=O)Cn1cnc2ccccc2c1=O | > 100 |  |  | 
COc1ccccc1-c1noc2ncnc(Nc3cccc(C)c3C)c12 | > 100 |  |  | 
Cc1noc(C)c1NC(=O)Nc1ccc2c(c1)C(=O)N([C@@H](C)CO)C[C@@H](C)[C@H](CN(C)C(=O)Nc1ccc3c(c1)OCO3)OCCCC[C@H](C)O2 | > 100 |  |  | 
NC(=O)c1ccccc1OCCOc1ccc(Br)cc1 | > 100 |  |  | 
O=C(O)c1cc2ccc3ccccc3c2[nH]1 | 7.13 |  |  | 
CCc1cc2c(=O)n(Cc3ccccc3)c(SC3CCOC3=O)nc2s1 (stereo not given) | 52.3 |  |  | 
O=C1c2ccccc2CSc2c(O)cccc21 | 45.9 |  |  | 
O=C(CCNC(=O)c1ccccc1)Nc1ccc(Cl)c(S(=O)(=O)N2CCCCC2)c1 | 42.6 |  |  | 
Cc1ccc(S(=O)(=O)N(C(=O)c2ccncc2)c2ccc(OC(=O)c3ccncc3)cc2)c(C)c1 | > 100 |  |  | 
COc1ccc(OC)c(NC(=O)c2c3c(nc4ccccc24)CCC3)c1 |  | > 100 µM (inactive) |  | 
CCOc1ccc(CCNC(=O)CCn2ccc3cc(S(=O)(=O)N4CCCC4)ccc32)cc1 |  | > 100 µM (inactive) | 41.4 | 
Cc1cc(NCc2ccccn2)n2nc(C)c(-c3ccccc3)c2n1 |  |  | 49.3 | 
CC1(C(=O)Nc2ccc3c(c2)OCCO3)CSCC(=O)N1CCOc1ccccc1 (stereo not given) |  | > 100 µM (inactive) | > 100 | 
Cc1cc(C)cc(NC(=O)c2cccc(NC(=O)c3ccco3)c2)c1 |  |  | 45.6 | 
CC(=O)Nc1cccc(Nc2nc(-c3ccccc3)nc3ccccc23)c1 |  | > 100 µM (inactive) | 5.27 | 
CCCCNC(=O)c1cc2c(C)cc(C)cc2[nH]1 |  | > 100 µM (inactive) |  | 
CC(OC(=O)CCc1c[nH]c2ccccc12)C(=O)c1ccccc1 (stereo not given) |  | > 100 µM (inactive) | 46.5 | 
C[C@@H]1CN([C@@H](C)CO)C(=O)c2cc(NC(=O)Nc3cccc4ccccc34)ccc2O[C@@H](C)CCCCO[C@@H]1CN(C)C |  |  | > 100 | 
Nc1ccccc1Sc1ccc(C(F)(F)F)cc1[N+](=O)[O-] |  | > 100 µM (inactive) |  | 
Cc1ccc(C2NC(=O)c3[nH]nc(-c4ccccc4)c32)cc1 (stereo not given) |  | > 100 µM (inactive) | 42.3 | 
COc1cccc(NC(=O)COC(=O)Cc2ccc(Cl)cc2)c1 |  |  | > 100 | 
COc1ccc(-c2noc(=O)n2Cc2ccccc2Cl)cc1 |  | > 100 µM (inactive) |  | 
CCCCc1cc2c(cc1NC(=O)CN1CCCCC1)OCCO2 |  | > 100 µM (inactive) | > 100 | 

SMILES | AC50 [1] [µM] | AC50 [2] | AC50 [2, 3] [µM] | further results
CN(C)CCCn1c(=O)n(Cc2ccco2)c(=O)c2c3c(sc21)CCCCC3 |  |  | > 100 | 
CCC(=O)Nc1sc(Cc2ccc3c(c2)OCO3)c(C)c1C(N)=O |  | > 100 µM (inactive) | 51.4 | 
CCOC(=O)Cc1nnc(NC(=O)CSc2nc3ccccc3[nH]2)s1 |  | > 100 µM (inactive) |  | 
c1ccc(CNc2ncnc3sccc23)cc1 |  | > 100 µM (inactive) |  | 
O=C(COC(=O)c1ccc([N+](=O)[O-])o1)NC12CC3CC(CC(C3)C1)C2 |  | > 100 µM (inactive) | > 100 | 
CC(=O)NCCOc1nc(N2CCCCC2)nc(N2CCCCC2)n1 |  |  | > 100 | 
COC(=O)C(Cc1csc2ccc(Cl)cc12)NC(=O)c1ccc(Cl)cc1 (stereo not given) |  | > 100 µM (inactive) | 18.4 | 
CCOC(=O)c1cnc2c(c(C)nn2C)c1Oc1ccc(OC)cc1 |  |  | > 100 | 
CCC(C(=O)NC1CCCC1)n1c(-c2ccnc3ccccc23)nc2ccccc21 (stereo not given) |  |  | > 100 | 
Cc1ccc(SCC(=O)Nc2ccc(S(=O)(=O)Nc3nccs3)cc2)cc1 |  | > 100 µM (inactive) |  | 
COc1ccccc1C1CCN(C(=O)c2cccs2)CC1 |  |  | > 100 | 
Cc1nc(N2CCCCC2)sc1C(=O)c1ccc(SCCO)c([N+](=O)[O-])c1 |  | > 100 µM (inactive) | 34.5 | 
CCCC#C/C(CCC)=C1\c2ccccc2C(=O)N1c1ccccc1 |  |  | > 100 | 
Fc1cccc(Cl)c1CSc1ccc(-c2ccco2)nn1 |  |  | > 100 | 
CCOC(=O)c1cc(C)nc(N2CCCCC2)c1C#N |  |  | > 100 | 
NC(=O)c1cc(NC(=O)c2cc(Br)c(Br)s2)cc(C(N)=O)c1 |  | > 100 µM (inactive) |  | 
CC1CCCC(NC(=O)COC(=O)[C@@H]2CC(O)CN2S(=O)(=O)c2ccc3c(c2)OCCO3)C1C (stereo not given in full) |  |  | > 100 | 
C[C@@H]1CN([C@H](C)CO)C(=O)c2cccc(NC(=O)c3ccncc3)c2O[C@@H]1CN(C)S(=O)(=O)c1ccc(Cl)cc1 |  | > 100 µM (inactive) | > 100 | 
CCN(CC)CCN(C(=O)c1ccc2c(c1)OCCO2)c1nc2cc(C)cc(C)c2s1 |  | > 100 µM (inactive) |  | 
COc1ccccc1C1CCN(Cc2cccc([N+](=O)[O-])c2)CC1 |  | > 100 µM (inactive) | > 100 | 
N#Cc1ccc(-c2ccc(C3[C@H]4CNC[C@@H]3N4S(=O)(=O)c3ccc(-c4ccccc4)cc3)cc2)cc1 (stereo not given in full) |  |  | > 100 | 
CCCCCCCNC(=O)c1ccc(N2CCC3(CC2)OCCO3)c([N+](=O)[O-])c1 |  | > 100 µM (inactive) | 35.4 | 
Cc1ccc(NC(=O)c2ccc(Br)o2)cc1S(=O)(=O)N(C)C |  | > 100 µM (inactive) | > 100 | 
COc1ccccc1C1CCN(C(=O)c2ccco2)CC1 |  |  | > 100 | 
COc1ccccc1N(C)S(=O)(=O)c1ccc(C(=O)NC(C)c2ccccc2)cc1 (stereo not given) |  | > 100 µM (inactive) |  | 

SMILES | AC50 [1] [µM] | AC50 [2] | AC50 [2, 3] [µM] | further results
CS(=O)(=O)N(CC(=O)N1CCc2ccccc2C1)c1ccc(Br)cc1 |  | > 100 µM (inactive) | 33.1 | 
O=C(c1ccco1)N(CCCN1CCOCC1)c1nc(-c2ccc(F)cc2)cs1 |  | > 100 µM (inactive) |  | 
O=C(Nc1ccc(Cl)cn1)c1cc2c(s1)-c1ccccc1OC2 |  |  | > 100 | 
CCCC(=O)N(CCc1ccc(OC)cc1)Cc1nc2ccccc2c(=O)[nH]1 |  | > 100 µM (inactive) |  | 
O=C(Nc1ccn(Cc2ccc(Cl)cc2)n1)c1ccccc1 |  |  | > 100 | 
CCC(=O)Nc1nc2c(OC)ccc(OC)c2s1 |  |  | > 100 | 
Clc1ccccc1-c1nnc2sc(CCc3ccccc3)nn12 |  | > 100 µM (inactive) | 15.4 | 
CCN(c1ccccc1)S(=O)(=O)c1ccc(OC)c(OC)c1 |  | > 100 µM (inactive) | > 100 | 
Cc1ccsc1C(=O)C1CCCN(Cc2cc(F)ccc2-n2cccn2)C1 (stereo not given) |  |  | > 100 | 
Cc1cc(C)c(NC(=O)C(C)c2cccc(C(=O)c3ccccc3)c2)c(C)c1 (stereo not given) |  |  | 47.2 | 
Cc1nn(CC(=O)OCCOc2ccc(Br)cc2)c(C)c1[N+](=O)[O-] |  |  | > 100 | 
CCNC(=O)C1(C)CCCN(Cc2cccc3ccccc23)C1 (stereo not given) |  | > 100 µM (inactive) | > 100 | 
CC1CCCC(NC(=O)COC(=O)Cc2c[nH]c3ccccc23)C1C (stereo not given) |  |  | > 100 | 
Cc1ccc(C(=O)Nc2ccc3ncccc3c2)cc1 |  | > 100 µM (inactive) |  | 
CC(C)(CC(=O)O)CC(=O)NCc1c(Cl)cccc1Sc1ccc(Cl)cc1 |  | > 100 µM (inactive) |  | 
COc1ccc(N2C(=O)C3C(C2=O)C3(c2ccccc2)c2ccccc2)cc1 (stereo not given) |  | > 100 µM (inactive) |  | 
COc1cccc(NC(=O)C2CCC(CNS(=O)(=O)c3cccs3)CC2)c1 (stereo not given) |  | > 100 µM (inactive) |  | 
COc1ccc(Cc2nnc(Nc3ccc(C)cc3)o2)cc1OC |  | > 100 µM (inactive) |  | 
COc1cc(C(N)=O)cc(Br)c1OCc1ccccc1 |  | > 100 µM (inactive) | 35.4 | 
Cc1nc2ccc(Br)cc2c(=O)n1Cc1cccs1 |  | > 100 µM (inactive) | 50.2 | 
CCOc1ccc(OCc2cccc(C(=O)O)c2)cc1 |  | > 100 µM (inactive) |  | 
COc1cc2c(cc1OC)CN(c1ccc([N+](=O)[O-])c(C(F)(F)F)c1)CC2 |  | > 100 µM (inactive) |  | AC50 ([2]; measured here: total growth OD600, test 2): > 100 µM
Cc1ccc2c(c1C)OC(=O)CC2c1ccccc1 (stereo not given) |  | > 100 µM (inactive) |  | 
O=C1N[C@@H](Cc2ccccc2)COC(=O)[C@H](Cc2ccc(F)cc2)C/C=C\C[C@H]1CC(=O)N(CCO)Cc1ccccc1 |  | > 100 µM (inactive) |  | 
